Results reported in ChEMBL document CHEMBL4385604, “Identification of Pyrrolo[2,3- d]pyrimidine-Based Derivatives as Potent and Orally Effective Fms-like Tyrosine Receptor Kinase 3 (FLT3) Inhibitors for Treating Acute Myelogenous Leukemia” (J Med Chem, 2019).

Legend:
MV4-11 [1] = experiment: Induction of apoptosis in human MV4-11 cells assessed as viable cells at 10 uM after 48 hrs by Annexin V/propidium iodide staining based flow cytometry (reference value: 94.4%); assay type: functional; conditions: MV4-11, 48 h, read-out: Activity
MV4-11 [2] = experiment: Induction of apoptosis in human MV4-11 cells assessed as viable cells at 1 nM after 48 hrs by Annexin V/propidium iodide staining based flow cytometry (reference value: 94.4%); assay type: functional; conditions: MV4-11, 48 h, read-out: Activity
MV4-11 [3] = experiment: Cell cycle arrest in human MV4-11 cells assessed as accumulation at S phase at 3 nM after 24 hrs by propidium iodide staining-based flow cytometric analysis (reference value: 30.12%); assay type: functional
MOLM-13 [4] = experiment: Induction of apoptosis in human MOLM13 cells assessed as early apoptotic cells at 100 nM after 48 hrs by Annexin V/propidium iodide staining based flow cytometry (reference value: 5.97%); assay type: functional
MV4-11 [5] = experiment: Cell cycle arrest in human MV4-11 cells assessed as accumulation at G2/M phase at 1 nM after 24 hrs by propidium iodide staining-based flow cytometric analysis (reference value: 21.12%); assay type: functional
MOLM-13 [6] = experiment: Cell cycle arrest in human MOLM13 cells assessed as accumulation at S phase at 30 nM after 24 hrs by propidium iodide staining-based flow cytometric analysis (reference value: 41.95%); assay type: functional
MV4-11 [7] = experiment: Induction of apoptosis in human MV4-11 cells assessed as viable cells at 100 nM after 48 hrs by Annexin V/propidium iodide staining based flow cytometry (reference value: 94.4%); assay type: functional; conditions: MV4-11, 48 h, read-out: Activity
MV4-11 [8] = experiment: Cell cycle arrest in human MV4-11 cells assessed as accumulation at S phase at 10 nM after 24 hrs by propidium iodide staining-based flow cytometric analysis (reference value: 30.12%); assay type: functional
MV4-11 [9] = experiment: Induction of apoptosis in human MV4-11 cells assessed as viable cells at 1 uM after 48 hrs by Annexin V/propidium iodide staining based flow cytometry (reference value: 94.4%); assay type: functional; conditions: MV4-11, 48 h, read-out: Activity
MV4-11 [10] = experiment: Induction of apoptosis in human MV4-11 cells assessed as late apoptotic cells at 10 uM after 48 hrs by Annexin V/propidium iodide staining based flow cytometry (reference value: 2.83%); assay type: functional
MOLM-13 [11] = experiment: Cell cycle arrest in human MOLM13 cells assessed as accumulation at G2/M phase at 30 nM after 24 hrs by propidium iodide staining-based flow cytometric analysis (reference value: 13.52%); assay type: functional
MOLM-13 [12] = experiment: Induction of apoptosis in human MOLM13 cells assessed as necrotic cells at 100 nM after 48 hrs by Annexin V/propidium iodide staining based flow cytometry (reference value: 0.29%); assay type: functional
MOLM-13 [13] = experiment: Induction of apoptosis in human MOLM13 cells assessed as viable cells at 100 nM after 48 hrs by Annexin V/propidium iodide staining based flow cytometry (reference value: 88.2%); assay type: functional; conditions: MOLM-13, 48 h, read-out: Activity
[14] = Toxicity in NOD/SCID mouse xenografted with human MV4-11 cells at 1 to 3 mg/kg, po qd for 14 days; assay type: organism-based; conditions: in vivo, 336 h
MOLM-13 [15] = experiment: Cell cycle arrest in human MOLM13 cells assessed as accumulation at G2/M phase at 3 nM after 24 hrs by propidium iodide staining-based flow cytometric analysis (reference value: 13.52%); assay type: functional
MV4-11 [16] = experiment: cells; conditions: Homo sapiens, MV4-11, 72 h
Description: Antiproliferative activity against human MV4-11 cells harboring FLT3-ITD mutant measured after 72 hrs by MTT assay

MV4-11 [17] = experiment: Cell cycle arrest in human MV4-11 cells assessed as accumulation at G0/G1 phase at 30 nM after 24 hrs by propidium iodide staining-based flow cytometric analysis (reference value: 48.76%); assay type: functional
BaF3 [18] = experiment: cells; conditions: Mus musculus, BaF3, 72 h
Description: Antiproliferative activity against mouse BAF3 cells harboring FLT3-ITD mutant measured after 72 hrs by MTT assay

MV4-11 [19] = experiment: Induction of apoptosis in human MV4-11 cells assessed as late apoptotic cells at 1 uM after 48 hrs by Annexin V/propidium iodide staining based flow cytometry (reference value: 2.83%); assay type: functional
MOLM-13 [20] = experiment: Induction of apoptosis in human MOLM13 cells assessed as viable cells at 1 uM after 48 hrs by Annexin V/propidium iodide staining based flow cytometry (reference value: 88.2%); assay type: functional; conditions: MOLM-13, 48 h, read-out: Activity
MV4-11 [21] = experiment: Induction of apoptosis in human MV4-11 cells assessed as late apoptotic cells at 1 nM after 48 hrs by Annexin V/propidium iodide staining based flow cytometry (reference value: 2.83%); assay type: functional
MV4-11 [22] = experiment: Cell cycle arrest in human MV4-11 cells assessed as accumulation at G2/M phase at 30 nM after 24 hrs by propidium iodide staining-based flow cytometric analysis (reference value: 21.12%); assay type: functional
[23] = target: Receptor-type tyrosine-protein kinase FLT3 (Homo sapiens) (UniProt P36888); experiment: Inhibition of FLT3 autophosphorylation in human MOLM13 cells assessed as ratio of phosphorylated FLT3 to beta-actin level at 30 nM after 2 hrs by Western blot analysis relative to control; assay type: cell-based
[24] = Toxicity in NOD/SCID mouse xenografted with human MOLM13 cells at 1 to 10 mg/kg, po qd for 10 days; assay type: organism-based; conditions: in vivo, 240 h
MOLM-13 [25] = experiment: Induction of apoptosis in human MOLM13 cells assessed as viable cells at 10 nM after 48 hrs by Annexin V/propidium iodide staining based flow cytometry (reference value: 88.2%); assay type: functional; conditions: MOLM-13, 48 h, read-out: Activity
MOLM-13 [26] = experiment: Cell cycle arrest in human MOLM13 cells assessed as accumulation at G2/M phase at 10 nM after 24 hrs by propidium iodide staining-based flow cytometric analysis (reference value: 13.52%); assay type: functional
MV4-11 [27] = experiment: Induction of apoptosis in human MV4-11 cells assessed as late apoptotic cells at 10 nM after 48 hrs by Annexin V/propidium iodide staining based flow cytometry (reference value: 2.83%); assay type: functional
MOLM-13 [28] = experiment: Induction of apoptosis in human MOLM13 cells after 48 hrs by Annexin V/propidium iodide staining-based flow cytometry; assay type: functional, cell-based
BaF3 [29] = experiment: cells; conditions: Mus musculus, BaF3, 72 h; remark: listed apart in the source
Description: Antiproliferative activity against mouse BAF3 cells harboring FLT3-ITD-D835V mutant measured after 72 hrs by MTT assay

Chain of Receptor-type tyrosine-protein kinase FLT3 (Homo sapiens) (P36888 whole entry): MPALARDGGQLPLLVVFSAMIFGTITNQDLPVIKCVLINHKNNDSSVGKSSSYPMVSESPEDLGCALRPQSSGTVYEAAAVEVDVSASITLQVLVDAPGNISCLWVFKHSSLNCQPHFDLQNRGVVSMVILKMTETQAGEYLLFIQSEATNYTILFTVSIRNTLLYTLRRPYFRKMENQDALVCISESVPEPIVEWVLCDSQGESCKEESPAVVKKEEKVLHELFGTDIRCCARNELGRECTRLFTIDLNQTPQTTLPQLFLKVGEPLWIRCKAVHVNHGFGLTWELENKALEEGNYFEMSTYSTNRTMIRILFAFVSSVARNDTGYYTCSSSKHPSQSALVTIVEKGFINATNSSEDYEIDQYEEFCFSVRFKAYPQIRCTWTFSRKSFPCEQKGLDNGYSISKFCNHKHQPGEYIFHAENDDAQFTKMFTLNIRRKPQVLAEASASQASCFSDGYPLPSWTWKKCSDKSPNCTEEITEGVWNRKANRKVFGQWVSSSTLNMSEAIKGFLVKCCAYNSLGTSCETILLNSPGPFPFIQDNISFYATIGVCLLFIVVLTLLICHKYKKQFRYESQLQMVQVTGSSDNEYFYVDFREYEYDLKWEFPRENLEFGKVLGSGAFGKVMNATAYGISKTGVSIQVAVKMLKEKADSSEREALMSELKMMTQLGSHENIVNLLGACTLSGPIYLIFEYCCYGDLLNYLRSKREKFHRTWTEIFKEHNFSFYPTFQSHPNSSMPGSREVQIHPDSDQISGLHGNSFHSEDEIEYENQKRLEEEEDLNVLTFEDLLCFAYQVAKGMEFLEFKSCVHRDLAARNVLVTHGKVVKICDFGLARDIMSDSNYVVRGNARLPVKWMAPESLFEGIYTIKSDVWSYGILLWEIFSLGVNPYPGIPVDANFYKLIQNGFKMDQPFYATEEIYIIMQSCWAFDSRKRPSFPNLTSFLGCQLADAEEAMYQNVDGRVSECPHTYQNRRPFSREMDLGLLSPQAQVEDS

IC50 (MV4-11 [16]): 0.089 nM
IC50 (BaF3 [18]): 0.92 nM
fold change (FC) [23]: 0
IC50 (BaF3 [29]): 20.7 nM
Compound: C=CCn1cc(-c2ccc(NC(=O)Nc3cc(C(C)(C)C)on3)cc2)c2c(N)ncnc21
viability at 10 µM (MV4-11 [1]): 18.1%
viability at 0.001 µM (MV4-11 [2]): 92.7%
Activity (MV4-11 [3]): 8.81%
Activity (MOLM-13 [4]): 15.5%
Activity (MV4-11 [5]): 16.55%
Activity (MOLM-13 [6]): 2.84%
viability at 0.1 µM (MV4-11 [7]): 75.7%
Activity (MV4-11 [8]): 2.06%
viability at 1 µM (MV4-11 [9]): 55%
Activity (MV4-11 [10]): 66.4%
Activity (MOLM-13 [11]): 2.47%
Activity (MOLM-13 [12]): 0.19%
viability at 0.1 µM (MOLM-13 [13]): 62.8%
Activity [14]: Non-Toxic
Activity (MOLM-13 [15]): 4.55%
Activity (MV4-11 [17]): 96.25%
Activity (MV4-11 [19]): 24.8%
viability at 1 µM (MOLM-13 [20]): 29%
Activity (MV4-11 [21]): 4.62%
Activity (MV4-11 [22]): 1.79%
Activity [24]: Non-Toxic
viability at 0.01 µM (MOLM-13 [25]): 66.1%
Activity (MOLM-13 [26]): 2.37%
Activity (MV4-11 [27]): 11%
Activity (MOLM-13 [28]): Dose-dependent effect
